The target in one test is T1, Human plasma DPP-IV (Homo sapiens, UniProt P27487).
T1 construct: from tissue; host or cells: human plasma
As to the kind of experiment: Plasma DPP-IV inhibitory activity, fluorescence assay (human plasma). The note with it: human plasma (10-fold diluted), Gly-Pro-MCA substrate, room temperature 60 min. The class given is biochemical. The procedure: (§1) The plasma DPP-IV inhibitory activity of human and rat was measured by the fluorescence assay method.
(§2) The inhibitory rate relative to the solvent addition group was calculated and IC50 values were determined by logistic analysis.

Another test has as its target T2, Rat plasma DPP-IV (Rattus norvegicus, UniProt P14740).
T2 construct: from tissue; host or cells: rat plasma
As to the kind of experiment: Plasma DPP-IV inhibitory activity, fluorescence assay (rat plasma). The format is biochemical. Particulars: rat plasma (10-fold diluted), Gly-Pro-MCA substrate, room temperature 60 min. The method, then: as §1, §2

IC50 data for eleven molecules are collected here from US7060722B2, “Proline derivatives and use thereof as drugs” (Mitsubishi Pharma Corporation, priority 2000, dated 2006).

Where a name gives a salt, the structure may show the parent alone.

T2 sequence (P14740 37-767 limits assumed): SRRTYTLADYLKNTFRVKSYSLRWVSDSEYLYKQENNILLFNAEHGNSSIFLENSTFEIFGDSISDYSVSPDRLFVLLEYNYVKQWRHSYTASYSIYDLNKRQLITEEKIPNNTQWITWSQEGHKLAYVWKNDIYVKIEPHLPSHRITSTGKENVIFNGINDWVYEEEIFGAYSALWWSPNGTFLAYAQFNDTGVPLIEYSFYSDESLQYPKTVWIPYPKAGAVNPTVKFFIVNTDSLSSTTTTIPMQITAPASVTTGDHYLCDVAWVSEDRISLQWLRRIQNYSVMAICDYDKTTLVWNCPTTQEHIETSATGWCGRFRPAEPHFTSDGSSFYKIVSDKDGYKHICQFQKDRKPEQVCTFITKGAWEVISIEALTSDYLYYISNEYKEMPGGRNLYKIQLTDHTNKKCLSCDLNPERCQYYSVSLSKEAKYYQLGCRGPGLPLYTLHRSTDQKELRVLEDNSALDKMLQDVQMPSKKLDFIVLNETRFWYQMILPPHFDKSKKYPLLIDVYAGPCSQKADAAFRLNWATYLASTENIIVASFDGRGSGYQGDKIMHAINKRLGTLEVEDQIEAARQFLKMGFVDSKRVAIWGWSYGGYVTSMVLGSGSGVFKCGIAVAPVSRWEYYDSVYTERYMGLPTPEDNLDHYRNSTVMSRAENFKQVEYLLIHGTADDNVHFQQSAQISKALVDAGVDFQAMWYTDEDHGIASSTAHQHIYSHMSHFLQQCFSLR
T1 sequence (P27487 39-766 limits assumed): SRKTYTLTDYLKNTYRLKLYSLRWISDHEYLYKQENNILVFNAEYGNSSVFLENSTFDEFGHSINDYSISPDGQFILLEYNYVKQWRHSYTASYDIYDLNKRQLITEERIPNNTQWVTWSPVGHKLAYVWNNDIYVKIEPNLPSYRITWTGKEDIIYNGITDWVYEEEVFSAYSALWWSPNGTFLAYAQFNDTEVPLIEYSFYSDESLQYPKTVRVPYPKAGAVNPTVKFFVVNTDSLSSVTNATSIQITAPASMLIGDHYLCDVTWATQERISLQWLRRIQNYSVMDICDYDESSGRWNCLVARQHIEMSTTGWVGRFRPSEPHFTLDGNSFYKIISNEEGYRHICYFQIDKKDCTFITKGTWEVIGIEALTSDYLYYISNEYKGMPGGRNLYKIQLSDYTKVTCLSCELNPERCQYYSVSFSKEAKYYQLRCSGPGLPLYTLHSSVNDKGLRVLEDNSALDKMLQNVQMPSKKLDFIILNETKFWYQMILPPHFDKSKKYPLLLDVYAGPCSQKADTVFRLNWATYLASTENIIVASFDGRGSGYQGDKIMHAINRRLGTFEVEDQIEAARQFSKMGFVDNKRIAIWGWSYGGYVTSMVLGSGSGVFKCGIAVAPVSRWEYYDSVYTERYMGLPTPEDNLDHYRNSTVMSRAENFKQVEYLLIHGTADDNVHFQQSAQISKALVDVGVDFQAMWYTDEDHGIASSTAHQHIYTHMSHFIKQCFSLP

For the molecule `N#C[C@@H]1CCCN1C(=O)[C@@H]1C[C@H](Nc2ccc(C(F)(F)F)cn2)CN1` [Example 20, (S)-2-cyano-1-[(2S,4S)-4-(5-trifluoromethyl-2-pyridyl)amino-2-pyrrolidinylcarbonyl]pyrrolidine 2 trifluoroacetate], the IC50 at Human plasma DPP-IV is 0.54 nM; on Rat plasma DPP-IV, 0.41 nM.

Regarding `N#C[C@@H]1CCCN1C(=O)[C@@H]1C[C@H](Nc2ncccn2)CN1` [Example 24, (S)-2-cyano-1-[(2S,4S)-4-(2-pyrimidinyl)amino-2-pyrrolidinylcarbonyl]pyrrolidine hydrochloride], the values for the 50% inhibitory concentration (IC50) against Human plasma DPP-IV and against Rat plasma DPP-IV were 0.51 nM and 0.64 nM, respectively.

`N#C[C@@H]1CCCN1C(=O)[C@@H]1C[C@H](NCc2ccc([N+](=O)[O-])cc2)CN1` [Example 29, (S)-2-cyano-1-[(2S,4S)-4-(4-nitrophenylmethyl)amino-2-pyrrolidinylcarbonyl]pyrrolidine dihydrochloride]: the half-maximal inhibitory concentration (IC50) against Human plasma DPP-IV stood at 0.3 nM; on Rat plasma DPP-IV, 0.22 nM.

Take `CCOC(=O)CN(CC(=O)OCC)[C@@H]1CN[C@H](C(=O)N2CCC[C@H]2C#N)C1` [Example 39, (S)-2-cyano-1-{(2S,4S)-4-[N,N-bis(ethoxycarbonylmethyl)amino]-2-pyrrolidinylcarbonyl}pyrrolidine dihydrochloride]: the IC50 at Human plasma DPP-IV amounted to 1.1 nM; at Rat plasma DPP-IV, 0.55 nM.

With `CN(Cc1cccc(C#N)c1)[C@@H]1CN[C@H](C(=O)N2CCSC2)C1` [Example 99, 3-{(2S,4S)-4-[N-(3-cyanophenylmethyl)-N-methylamino]-2-pyrrolidinylcarbonyl}-1,3-thiazolidine dihydrochloride], the figures for the 50% inhibitory concentration (IC50) at Human plasma DPP-IV and at Rat plasma DPP-IV were 6.8 nM and 9.4 nM, respectively.

For `O=C([C@@H]1C[C@H](N2CCC(c3cc4ccccc4s3)CC2)CN1)N1CCSC1` [Example 143, 3-{(2S,4S)-4-[4-(2-benzo[b]thienyl)piperidino]-2-pyrrolidinylcarbonyl}-1,3-thiazolidine dihydrochloride], the concentration for half-maximal inhibition (IC50) on Human plasma DPP-IV came out at 1.5 nM; against Rat plasma DPP-IV it was 2.1 nM.

For the molecule `O=C([C@@H]1C[C@H](N2CCN(c3ccc([N+](=O)[O-])cn3)CC2)CN1)N1CCCC1` [Example 186, 1-{(2S,4S)-4-[4-(5-nitro-2-pyridyl)-1-piperazinyl]-2-pyrrolidinylcarbonyl}pyrrolidine trihydrochloride], the values for the IC50 against Human plasma DPP-IV and against Rat plasma DPP-IV were 3.7 nM and 4.2 nM, respectively.

Turning to `O=C(O)c1ccc(N2CCN([C@@H]3CN[C@H](C(=O)N4CCSC4)C3)CC2)nc1` [Example 212, 3-{(2S,4S)-4-[4-(5-carboxy-2-pyridyl)-1-piperazinyl]-2-pyrrolidinylcarbonyl}-1,3-thiazolidine trihydrochloride], the half-maximal inhibitory concentration (IC50) at Human plasma DPP-IV was 0.45 nM; against Rat plasma DPP-IV, 0.75 nM.

Regarding `O=C([C@@H]1C[C@H](N2CCN(c3nc4ccc(C(F)(F)F)cc4s3)CC2)CN1)N1CCSC1` [Example 242, 3-{(2S,4S)-4-[4-(6-trofluoromethyl-2-benzothiazolyl)-1-piperazinyl]-2-pyrrolidinylcarbonyl}-1,3-thiazolidine dihydrochloride], the IC50 was 0.33 nM on Human plasma DPP-IV and 0.34 nM against Rat plasma DPP-IV.

Take `O=C([C@@H]1C[C@H](N2CCC(c3nn(CCN4CCOCC4)c(=O)o3)CC2)CN1)N1CCSC1` [Example 296, 3-((2S,4S)-4-{4-[4-(2-morpholinoethyl)-5-oxo-4,5-dihydro-1,3,4-oxadiazol-2-yl]piperidino}-2-pyrrolidinylcarbonyl)-1,3-thiazolidine trihydrochloride]: the concentration for half-maximal inhibition (IC50) at Human plasma DPP-IV was 1.1 nM; against Rat plasma DPP-IV, 1.9 nM.

Regarding `O=C([C@@H]1C[C@H](N2CCC(c3nc4ccc(F)cc4[nH]3)CC2)CN1)N1CCSC1` [Example 303, 3-{(2S,4S)-4-[4-(5-fluoro-2-benzimidazolyl)piperidino]-2-pyrrolidinylcarbonyl}-1,3-thiazolidine trihydrochloride], the 50% inhibitory concentration (IC50) against Human plasma DPP-IV was found to be 0.61 nM; on Rat plasma DPP-IV, 1.1 nM.

Broadly, the IC50 is the concentration that gives 50% inhibition. Low values mean inhibition by little substance, high ones a need for much substance.
